Measured values reported in patent US20220168392A1 (priority 2019, published 2022).
Square brackets hold non-standard residues; d marks the D form. * marks the point of attachment. 2Nal = N[C@@H](Cc1ccc2ccccc2c1)C(=O)O; Propionyl = CCC(=O)*; Sar = CNCC(=O)O

Legend:
[1] = system: female rats exposed to LD70 total body gamma radiation; assay: Rat whole body irradiation study; assay type: in vivo
Description: FIGS. 16A-B show the percent survival in female SD Rats (n=8/group) administered RWJ-800088 (TPOm) at different time points and dose levels—FIG. 16A: 3000 μg/kg at 6, 24 and 48 hours post TBI (7.18 Gy), and FIG. 16B: 300 and 3000 μg/kg at 24 hours post TBI (7.18 Gy).
RWJ-800088 was administered at a 3000 μg/kg dose by SC injection to female rats (n=8) at 6, 24, or 48 hours and additionally 300 μg/kg dose at 24 hours after exposure to an LD70 total body dose of gamma radiation (Gammacell 3000 irradiator).

mice surviving TBI = assay: Long-term blood cells, bone marrow and kidney staining in TBI survivors (Example 5); assay type: in vivo, mouse
Description: Methods: During the above Experiment 4, four studies were performed as follows:
Study A: A subset of the animals were sacrificed at 1, 6, and 12 months. Blood was collected and blood cells counted, and femurs were collected, bone marrow isolated and cultured to analyze for colony forming units;
Study B: A subset of the animals were sacrificed at 1 and 6 months. Sterna were collected from these animals, fixed, sectioned, stained with H&E (Hematoxylin and eosin), and megakaryocytes counted;
Study C: A subset of the animals were sacrificed at 1 and 6 months. Kidneys were collected from these animals, fixed, sectioned, stained with β-Catenin or E-cadherin: and
Study D: A subset of the animals were sacrificed at 1 and 6 months. Kidneys were collected from these animals, fixed, sectioned, stained with β-galactosidase, a marker of senescence.

mouse bone marrow cells = assay: Hematopoietic progenitor clonogenic (CFU) assay of bone marrow after 7 Gy TBI; assay type: in vivo
Description: Hematopoietic Progenitor Clonogenic Assay: Clonogenicity of mouse bone marrow cells was quantified in standard semisolid cultures using 1 mL of Methocult GF+ system for mouse cells (Stem Cell Technologies Inc., Vancouver, BC) according to the manufacturer's instructions. Briefly, colony forming units (CFU) were assayed on days 0 (2 h post-TBI), 1, 3, 7, 15, and 30 after 7 Gy exposure or unirradiated mice. Cells from three femurs from different animals were pooled, washed twice with IMDM and seeded at 1 to 5×10^4 cells per 35 mm cell culture dishes (BD Biosciences, San Jose, Calif.). Each sample was plated in duplicate to be scored 14 days after plating. Granulocyte-macrophage colony forming units (CFU-GM), granulocyte-erythrocyte-monocyte-[…] CFU (CFU-GEMM), colony-forming unit-erythroid (CFU-E) and erythroid burst-forming units (BFU-E) were identified and quantified following the manufacturer's instructions. Colonies were counted 14 days after plating using a Nikon TS100F microscope. Fifty or more cells were considered one colony. Data were expressed as mean f standard error of mean (SEM). Statistical significance was determined between irradiated vehicle treated and RWJ-800088-treated groups.

Mice, ear vein = assay: Ear vein model in mice (Table 6); assay type: in vivo, mouse; conditions: 0.3 mg/kg, whole wrapped cell: Reduced white cell adhesion to endothelium and vascular permeability
[2] = system: CD21F1 male mice exposed to TBI; assay: Dose reduction factor (DRF) and long-term survival study after TBI; assay type: in vivo, mouse
From the text: Methods: CD21F1 male mice were used in a DRF (dose reduction factor) study to determine LD50/30 for animals administered with RWJ-800088 or it's vehicle (saline). This included irradiating cohorts of 24 animals at various total body irradiation (TBI) doses (Saline: 7.5, 8.0, 8.5, 9.0, 9.5, and 10 Gy; RWJ-800088: 10.5, 11.0, 11.5, 11.75, 12, and 12.5 Gy). Following the 30 day survival study, surviving animals were monitored for up to 1 year with planned collection points at 6 months and 1 year.
RWJ-800088 administration timing and doses: RWJ-800088 was administered […] at a dose of 1 mg/kg 24 h prior to irradiation.

[3] = system: rhesus monkeys after TBI gamma radiation (600 cGY); assay: Rhesus monkey whole body irradiation pilot PK/PD study; assay type: in vivo
Description: A pilot PK/PD study was performed to evaluate the efficacy of RWJ-800088 in rhesus monkeys (Study No. 2016-2693—CiToxLAB North America). Rhesus monkeys (n=10/group, 5 male/5 female) were treated with vehicle or RWJ-800088 (a single dose of 30 mg/kg RWJ-800088) administered 24 hours post TBI gamma radiation (600 cGY). […] The ratio of the maximum platelet count to baseline following escalating doses of RWJ-800088 to healthy rhesus monkeys is as follows: 0.97±0.06× at 0.5 mg/kg, 1.08±0.15× at 2 mg/kg, 1.98±0.16× at 10 mg/kg, 2.9±0.03× at 20 mg/kg, and 3.83±0.11× at 40 mg/kg).

[4] = 1 and 6 months post TBI (FIG. 25)
[5] = Group 7, 10.5 Gy, 1 mg/kg 24 h prior to irradiation
[6] = Group 9, 11.5 Gy, 1 mg/kg 24 h prior to irradiation
[7] = Group 12, 12.5 Gy, 1 mg/kg 24 h prior to irradiation

## methoxypolyethyleneglycol20000-propionyl-L-Isoleucyl-L-Glutamyl-Glycyl-L-Prolyl-L-Threonyl-L-Leucyl-L-Arginyl-L-Glutaminyl-L-2-Naphthylalanyl-L-Leucyl-L-Alanyl-L-Alanyl-L-Arginyl-Sarcosyl-Ne-(methoxypolyethyleneglycol20000-propionyl-L-Isoleucyl-L-Glutamyl-Glycyl-L-Prolyl-L-Threonyl-L-Leucyl-L-Arginyl-L-Glutaminyl-L-2-Naphthylalanyl-L-Leucyl-L-Alanyl-L-Alanyl-L-Arginyl-Sarcosyl-)-Lysinamide ({mPEG 20 kDa-Propionyl}-IEGPTLRQ[2Nal]LAAR[Sar]K-NH2; also: dimer: second identical mPEG-propionyl chain on Lys Nε of C-terminal lysinamide) [RWJ-800088]
[1]; Rats, whole body irradiation, whole wrapped cell: Enhanced survival, mitigation against thrombocytopenia, anemia
  Effects: Enhanced survival,
[1]; female rats, 3000 μg/kg SC at 6 and 24 hours post TBI (FIG. 16A)
  survival vs vehicle and RWJ-800088 at 48 hours post-irradiation: significantly higher
[1]; female rats, 24 hours post irradiation (FIG. 16B)
  survival, 3000 μg/kg compared with 300 μg/kg: substantially increased
Mice surviving TBI; [4]
  E-cadherin expression in kidney vs vehicle: higher
  β-Catenin expression in kidney: decreases β-Catenin expression
Mice surviving TBI; 1 and 6 months post TBI (FIG. 26, 27)
  β-galactosidase staining in kidney (marker of senescence): protects from cellular senescence
Mice surviving TBI; 1 and 6 months post irradiation
  megakaryocytes in sterna vs vehicle (saline): significantly higher numbers of megakaryocytes
Mice surviving TBI; 6 months and 12 months post TBI
  blood cell types (white blood cells, lymphocytes, neutrophils, platelets, red blood cells) vs vehicle: increased in number
Mice surviving TBI; 6 months post TBI (FIG. 23)
  colony forming units in isolated bone marrow vs vehicle: more colony forming units
Mouse bone marrow cells; day 15 post-TBI 7 Gy, 24 h pre-TBI administration
  total number of colonies in the vehicle-treated group compared to the RWJ-800088 treated group: significantly lower
Mouse bone marrow cells; day 30 post-TBI 7 Gy
  GM, GEMM, BFU-E and CFU-E, vehicle-treated vs RWJ-800088 treated groups: significantly lower (p<0.0001)
Mice, ear vein
  Effects: Reduced white cell
[2]; 1 mg/kg 24 h prior to irradiation, 95% CI 1.16-2.54
  DRF value: 1.42
[2]; 1 mg/kg 24 h prior to irradiation, LD50/30
  LD50 value (radiation dose) for RWJ-800088 treated animals: 12.64 Gy
[2]; [5]
  # Surviving (6 months): 10/10
  # Surviving (12 months): 5/5
  # Surviving (30 days): 24/24
[2]; [6]
  # Surviving (6 months): 10/10
  # Surviving (12 months): 5/5
  # Surviving (30 days): 22/24
[2]; [7]
  # Surviving (12 months): 0/3
  # Surviving (30 days): 11/24
[2]; Group 12, 12.5 Gy, two animals were added from 12 Gy
  # Surviving (6 months): 7/10
[3]; Rhesus, whole body irradiation, 30 mg/kg, whole wrapped cell: Enhanced survival, mitigation of thrombocytopenia, anemia
  Effects: Enhanced survival,
[3]; irradiated animals, 30 mg/kg 24 hours post-TBI (FIG. 18B-D)
  decrease in RBC, reticulocytes and WBC vs irradiated vehicle: less severe decrease
[3]; sham or irradiated animals, 30 mg/kg 24 hours post-TBI (FIG. 18A)
  platelet counts, nadir and recovery: beneficial effects on platelet counts
[3]; single dose 30 mg/kg 24 hours post TBI 600 cGY, n=10/group (FIG. 17)
  survival (animals surviving): 9/10
